Measured values taken from paper PMC7946438 (The Journal of Biological Chemistry, 2021).

Key:
[1] = tested on: MDA-MB-231 cells; test: Stability of the compound in cells by live-cell fluorescence imaging; format: in vitro ADME; settings: MDA-MB-231, 10 μM
[2] = tested on: MDA-MB-231; test: Cytotoxicity by MTT assay, MDA-MB-231; format: cell-based; settings: for IC50: Homo sapiens, MDA-MB-231, read-out: IC50 dose; for IC10 dose: MDA-MB-231, value used as dose in wound-healing assay
[3] = biological target: T1, DYRK2 (Homo sapiens, UniProt Q92630); test: Coupled kinase assay, DYRK2; format: biochemical
T1 sequence (Q92630 146-540): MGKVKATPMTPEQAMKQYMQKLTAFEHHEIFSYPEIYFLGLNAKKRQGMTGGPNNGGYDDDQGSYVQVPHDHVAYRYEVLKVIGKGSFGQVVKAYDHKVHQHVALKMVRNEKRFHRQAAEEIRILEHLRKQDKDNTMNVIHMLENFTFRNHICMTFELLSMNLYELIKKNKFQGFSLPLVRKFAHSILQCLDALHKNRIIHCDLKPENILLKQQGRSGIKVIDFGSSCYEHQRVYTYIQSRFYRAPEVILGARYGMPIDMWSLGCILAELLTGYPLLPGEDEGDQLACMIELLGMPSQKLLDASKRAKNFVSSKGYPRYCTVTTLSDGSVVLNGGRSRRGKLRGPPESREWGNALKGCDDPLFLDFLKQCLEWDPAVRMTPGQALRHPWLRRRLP

[4] = biological target: T2, Hck (Homo sapiens, UniProt P08631); test: biochemical; format: biochemical
Target sequence in this assay (P08631 262-515 limits assumed): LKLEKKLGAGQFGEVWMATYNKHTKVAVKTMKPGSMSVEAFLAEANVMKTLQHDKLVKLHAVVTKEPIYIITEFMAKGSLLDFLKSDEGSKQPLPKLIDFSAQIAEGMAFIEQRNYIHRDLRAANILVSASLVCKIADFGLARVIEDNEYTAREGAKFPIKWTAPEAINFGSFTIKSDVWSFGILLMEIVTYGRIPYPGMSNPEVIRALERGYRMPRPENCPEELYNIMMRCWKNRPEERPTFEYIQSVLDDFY

[5] = Aggregation by dynamic light scattering; format: physicochemical; settings: 15 μM in aqueous assay buffer
[6] = biological target: T2, Hck; test: biochemical; format: binding
Target sequence in this assay (P08631 247-526 limits assumed): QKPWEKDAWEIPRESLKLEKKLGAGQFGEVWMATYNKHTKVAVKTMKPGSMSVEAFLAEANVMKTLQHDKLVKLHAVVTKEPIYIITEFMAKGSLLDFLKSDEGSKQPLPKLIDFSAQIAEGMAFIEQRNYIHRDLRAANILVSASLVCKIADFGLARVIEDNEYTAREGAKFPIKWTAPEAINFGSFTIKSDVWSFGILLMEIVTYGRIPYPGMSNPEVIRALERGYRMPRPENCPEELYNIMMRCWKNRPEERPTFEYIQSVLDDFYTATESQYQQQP

[7] = tested on: Bcl-2, Cytochrome C, caspase 3, Bid; test: Western blot analysis of apoptosis markers; format: cell-based; settings: MDA-MB-231, 10 and 20 μM, 12 h
[8] = tested on: ERK1/2; test: ERK1/2 nuclear translocation, immunofluorescence; format: cell-based; settings: MDA-MB-231, 5 μM of 4
[9] = biological target: pY-Src (Homo sapiens, UniProt P12931); test: Coupled kinase assay, phosphorylated Src; format: biochemical; settings: 5 μM of 4
[10] = biological target: T2, Hck; format: biochemical
Target sequence in this assay (P08631 247-526 limits assumed): as above

[11] = tested on: HEK 293T; test: Cytotoxicity by MTT assay, HEK 293T; format: cell-based; settings: Homo sapiens, 48 h, read-out: IC50 value HEK 293T
[12] = biological target: Src kinase domain (Homo sapiens, UniProt P12931)
[13] = biological target: T1, DYRK2; test: Stop-flow tryptophan fluorescence binding kinetics, DYRK2; settings: tryptophan fluorescence transient
[14] = tested on: RAW 264.7 cells; test: Intracellular calcium detection; format: cell-based, murine; settings: RAW 264.7, 5 μM of 4
[15] = biological target: T3, Abl Y253F (Homo sapiens, UniProt P00519, Y253F); test: Stop-flow tryptophan fluorescence binding kinetics, Abl Y253F
T3 sequence (P00519 229-512 Y253F limits assumed): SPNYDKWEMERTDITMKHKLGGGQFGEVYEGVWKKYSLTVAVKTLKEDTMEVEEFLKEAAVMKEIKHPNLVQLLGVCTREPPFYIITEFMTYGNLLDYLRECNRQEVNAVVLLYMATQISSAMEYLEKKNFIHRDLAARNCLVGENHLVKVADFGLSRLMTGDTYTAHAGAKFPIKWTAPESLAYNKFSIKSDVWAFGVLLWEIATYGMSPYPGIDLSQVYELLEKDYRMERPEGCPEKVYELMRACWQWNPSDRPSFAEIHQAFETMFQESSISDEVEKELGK

[16] = tested on: MDA-MB-231 cells; test: Wound-healing assay; format: cell-based; settings: IC10 and IC50 dose
[17] = tested on: Src, ERK1/2, and STAT3; test: Phosphorylation of Src, ERK1/2 and STAT3 in macrophages, immunoprecipitation; format: cell-based, murine; settings: RAW 264.7, LPS activated
[18] = tested on: MDA-MB-231 cells; test: Plasma membrane integrity, FM4-64-FX live-cell imaging; format: cell-based; settings: 15 μM, 6 h
[19] = tested on: STAT3; test: STAT3 nuclear translocation, immunofluorescence; format: cell-based, murine; settings: RAW 264.7, 5 μM of 4
[20] = biological target: pY-Hck (Homo sapiens, UniProt P08631); test: Coupled kinase assay, phosphorylated Hck; format: biochemical; settings: 5 μM of 4
[21] = Solution stability; format: physicochemical
[22] = tested on: pUC19 plasmid DNA; test: DNA cross-linking assay; settings: 0.1–20 μM, 37 °C, 2 h
[23] = biological target: T4, Src (Homo sapiens, UniProt P12931); settings: MDA-MB-231
Target sequence in this assay (P12931 whole entry): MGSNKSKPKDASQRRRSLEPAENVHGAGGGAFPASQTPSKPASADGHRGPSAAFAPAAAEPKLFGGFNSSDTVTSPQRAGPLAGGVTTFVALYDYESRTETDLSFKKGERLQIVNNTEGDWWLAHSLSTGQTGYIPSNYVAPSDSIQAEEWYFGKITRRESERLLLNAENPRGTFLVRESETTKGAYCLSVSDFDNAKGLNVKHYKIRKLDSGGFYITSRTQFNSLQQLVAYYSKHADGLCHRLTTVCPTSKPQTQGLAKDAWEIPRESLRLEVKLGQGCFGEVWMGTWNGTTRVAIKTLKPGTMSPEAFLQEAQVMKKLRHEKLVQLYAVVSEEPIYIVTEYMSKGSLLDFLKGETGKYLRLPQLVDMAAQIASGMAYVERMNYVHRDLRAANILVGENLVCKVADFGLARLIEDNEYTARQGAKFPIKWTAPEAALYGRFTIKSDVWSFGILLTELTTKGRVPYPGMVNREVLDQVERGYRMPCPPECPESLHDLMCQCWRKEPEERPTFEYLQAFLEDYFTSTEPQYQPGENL

[24] = biological target: T3, Abl Y253F; test: Kinase activity of Abl Y253F mutant; format: biochemical; settings: 10 μM
[25] = biological target: T4, Src; test: biochemical
Target sequence in this assay (P12931 254-535 limits assumed): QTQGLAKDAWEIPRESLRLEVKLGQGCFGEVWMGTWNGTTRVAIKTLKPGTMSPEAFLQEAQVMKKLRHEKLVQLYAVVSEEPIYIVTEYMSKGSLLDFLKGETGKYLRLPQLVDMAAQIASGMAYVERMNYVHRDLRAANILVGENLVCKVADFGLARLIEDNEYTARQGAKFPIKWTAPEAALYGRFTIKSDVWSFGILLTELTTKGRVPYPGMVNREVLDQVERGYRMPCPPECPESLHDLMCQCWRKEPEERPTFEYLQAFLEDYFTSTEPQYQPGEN

[26] = biological target: T4, Src; format: biochemical
Target sequence in this assay (P12931 254-535 limits assumed): as above

Sequence of pY-Hck (P08631 166-445): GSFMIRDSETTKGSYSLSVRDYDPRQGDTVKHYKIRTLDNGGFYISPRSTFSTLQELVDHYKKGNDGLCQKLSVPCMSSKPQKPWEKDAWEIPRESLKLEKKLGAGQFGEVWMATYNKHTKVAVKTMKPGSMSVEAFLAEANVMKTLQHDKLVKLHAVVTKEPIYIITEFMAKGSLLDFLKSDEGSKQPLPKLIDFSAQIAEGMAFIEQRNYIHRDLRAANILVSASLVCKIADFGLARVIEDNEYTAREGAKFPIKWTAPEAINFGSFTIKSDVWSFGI
Sequence of Src kinase domain (P12931 254-535 limits assumed): as the sequence (P12931 254-535 limits assumed) above
Sequence of pY-Src (P12931 254-535): as the sequence (P12931 254-535 limits assumed) above

## COc1cc(/C=C/C(=O)CC(=O)/C=C/c2ccc(O)c(OC)c2)ccc1O [Compound 1, Curcumin, reference compound]
[1]; fluorescence
  Time to degradation inside the cell: ≤ 1 h
[2]
  IC50: 13 µM
  IC10 dose: 0.6 µM
[3]
  Ki: 0.006 µM

## COc1cc(/C=C/C(=O)C(=Cc2ccc(N(CCCl)CCCl)cc2)C(=O)/C=C/c2ccc(O)c(OC)c2)ccc1O [Compound 4, (1E,6E)-4-(4-(bis(2-chloroethyl)amino)benzylidene)-1,7-bis(4-hydroxy-3-methoxyphenyl)hepta-1,6-diene-3,5-dione]
[4]
  Ki: 0.07 ± 0.011 µM
[4]; Km for ATP changes, Vmax unchanged
  Mode of inhibition: competitive inhibitor for the ATP-binding site
[5]
  Aggregation in solution (oligomeric state, DLS): did not aggregate
[6]
  Kd: 0.05 ± 0.01 µM
[7]
  BH3 interacting domain death agonist expression level: does not affect
  Mitochondria-mediated apoptotic pathway (Bcl-2, cytochrome C, Caspase3): activates the mitochondria-mediated apoptotic pathway
[8]
  Cytosolic fraction of ERK1/2 after TNF-α activation: significantly increased
[9]
  Inhibition of phosphorylated Src (pY-Src): does not inhibit
[10]
  Reduction of the rate of autophosphorylation: 500 fold
[11]
  IC50: 24.9 ± 1 µM
[1]; observed for 14 h
  Time for which fluorescence was observed inside the cell: 14 h
[12]
  Covalent modification of cysteine residues of Src kinase: not covalently modifying
[13]
  Interaction with DYRK2: did not interact
[14]
  Ca^2+ release after LPS activation: significant reduction
[15]
  Kd: 1.3 ± 0.3 µM
[16]
  Effect on wound-healing rates: significantly impaired the wound-healing rates
[17]
  Phosphorylation of Src, ERK1/2, and STAT3: concentration-dependent reduced phosphorylation
[18]
  Effect on plasma membrane integrity: not affecting the membrane integrity
[19]
  Cytosolic fraction of STAT3 after LPS activation: increased cytosolic fraction of STAT3
[2]
  IC50: 1.3 µM
  IC10 dose: 0.1 µM
[20]
  Inhibition of phosphorylated Hck (pY-Hck): does not inhibit
[21]; 8:2 v/v of 1x PBS and DMSO-d6, 24 h observed period
  Time stable in solution by 1H NMR: at least 24 h
[21]; kinase assay buffer pH 8.0, 5% DMSO, 1 h
  Stability in the kinase assay buffer: most stable
[22]
  DNA cross-linking: do not cross-link DNA
[23]
  Autophosphorylation of Src in the cell: inhibits the autophosphorylation of Src
[24]
  Inhibition of Abl Y253F kinase activity: better inhibition compared with imatinib
[25]
  Ki: 0.46 ± 0.11 µM
[26]
  Reduction of the rate of autophosphorylation: 2.5 fold
